Data published in patent US20250387348A1, “NEPHROPROTECTIVE USEFUL AGENT” (WATANABE OYSTER LABORATORY, CO., LTD., priority 2022, published 2025).

Key:
[1] = tested on: human renal proximal tubular cells HK-2; test: LDH cytotoxicity test under BSO oxidative stress; format: cell-based; conditions: 48 hours
Experimental: (§1) Human renal proximal tubular cells (HK-2) were subcultured using Dulbecco's Modified Eagle's Medium (DMEM, NACALAI TESQUE, INC.) containing 10% fetal bovine serum and 1% penicillin-streptmycin in a 5% CO2 incubator at 37° C.
(§2) In order to confirm the cytoprotective action of DHMBA on human renal proximal tubular cells HK-2 against oxidative stress, an oxidative stress inducer buthionine sulfoximine (BSO) was used to assess the toxicity and viability of the cells.
(§3) Specifically, the HK-2 cells were seeded into a 96-well plate to be 3.0×10^3 cells/well and cultured for 24 hours.
(§4) Next, BSO and DHMBA were added in an amount of 150 μL/well to have a final concentration of BSO of 100 μM and a final concentration of DHMBA of 1 μM to 500 μM. […] After the plate was allowed to stand for 30 minutes at room temperature, the absorbance at 490 nm was measured using a plate reader (Wallac 1420 ARVO Mx plate reader, PerkinElmer) to measure the cytotoxicity. In addition, a CCK-8 reagent (DOJINDO LABORATORIES) was added in an amount of 10 μL/well to the plate where the cells had been cultured, and after two hours of culture at 37° C., the absorbance at 450 nm was measured using a plate reader (Wallac 1420 ARVO Mx plate reader) to assess the viability of the cells. The toxicity and viability of the cells were calculated from the absorbance value relative to the control (0 μg/mL) (n=5 to 6 for each group).

[2] = tested on: human renal proximal tubular cells HK-2; test: CCK-8 cell viability test under BSO oxidative stress; format: cell-based; conditions: 48 hours
Experimental: as §1, §2, §3, §4

[3] = tested on: intracellular ROS in HK-2 cells; test: Intracellular ROS production level (DCFDA staining); format: cell-based, human; conditions: 24 hours
Experimental: The production level of intracellular ROS was measured to assess changes in intracellular ROS by DHMBA under oxidative stress stimulation.
The HK-2 cells were seeded into a black 96-well plate to be 3.0×10^3 cells/well and cultured for 24 hours. Next, BSO and DHMBA were added in an amount of 100 μL/well to have a final concentration of BSO of 100 μM and a final concentration of DHMBA of 250 μM and 500 μM. After 24 hours, a supernatant was removed, a DCFDA reagent (Sigma) diluted to 25 μM with serum-free DMEM was added in an amount of 100 μL/well, and the cells were cultured at 37° C. for 40 minutes. Furthermore, after the cells were washed with PBS, PBS was added in an amount of 100 μL/well, and fluorescence was measured using a plate reader (Wallac 1420 ARVO Mx plate reader) at an excitation wavelength of 485 nm and a fluorescence wavelength of 535 nm (n=6 for each group) and observed and photographed with a fluorescence microscope BZ-9000 (Keyence).

[4] = tested on: intramitochondrial ROS in HK-2 cells; test: Intramitochondrial ROS production level (DHR123 staining); format: cell-based, human; conditions: 24 hours
Experimental: In order to verify the effect of DHMBA on the production of intramitochondrial ROS promoted by oxidative stress stimulation, the observation and measurement of fluorescence intensity of intramitochondrial ROS were performed using DHR123.
The HK-2 cells were seeded into a black 24-well plate to be 2.0×10^4 cells/well and cultured for 24 hours. Next, BSO and DHMBA were added in an amount of 500 μL/well to have a final concentration of BSO of 100 μM and a final concentration of DHMBA of 250 μM and 500 μM. After 24 hours, a supernatant was removed, a DHR123 reagent (FUJIFILM Wako Pure Chemical Corporation) diluted to 5 μM with serum-free DMEM was added in an amount of 250 μL/well, and the cells were cultured at 37° C. for 40 minutes.
Furthermore, after the cells were washed with PBS, 500 μL of PBS was added, observation was performed, and photos were taken using a fluorescence microscope BZ-9000 (Keyence). Then, after the cells were peeled from the bottom with a scraper and pipetted sufficiently, an amount of 200 μL/well was moved to a black 96-well plate, and fluorescence was measured using a plate reader (Wallac 1420 ARVO Mx plate reader) at an excitation wavelength of 505 nm and a fluorescence wavelength of 534 nm (n=6 for each group).

[5] = tested on: BIK and ENDOG genes in HK-2 cells; test: qPCR expression of cell and mitochondrial damage-related genes; format: cell-based, human; conditions: 24 hours
Excerpt: Under oxidative stress stimulation, ENDOG that resides in a mitochondrion migrates to the nucleus and acts on nuclear DNA fragmentation. In addition, when nuclear DNA is damaged, BIK increases and acts with intramitochondrial factors, inducing apoptosis, a type of cell death (Li L Y, et al., Nature, 412:95-99, 2001; Kutuk O, et al., PLOS One, 12: e0182809, 2017).
Therefore, in the present invention, the effect of DHMBA on cell death markers BIK and ENDOG, which increase under oxidative stress stimulation, was verified.
The HK-2 cells were seeded into a 6-well plate to be 5.0×10^4 cells/well and cultured for 24 hours. Next, BSO and DHMBA were added in an amount of 2 mL/well to have a final concentration of BSO of 100 μM and a final concentration of DHMBA of 250 μM and 500 μM. After 24 hours, total RNA extraction was recovered using a NucleoSpin (registered trademark) RNA kit (MACHEREY-NAGEL). The concentration of purified RNA was quantified by the Nanodrop (Invitrogen). From 1.0 μg of total RNA, cDNA was synthesized according to the protocol of ReverTra ACE (registered trademark) qPCR RT Master Mix with gDNA Remover (TOYOBO). The gene expression levels were measured according to the protocol of THUNDERBIRD (registered trademark) SYBR (registered trademark) qPCR Mix (TOYOBO). The measurement was performed using the CFX Connect™ Real-Time PCR Detection System (BioRad), and analysis was performed by the 2^−(ΔΔCT) method.
A comparison was performed with the gene expression level of the control group as 1. The figure was expressed as a mean value±SD (n=4 for each group). Each expression level was corrected by the expression level of β-actin, which is a housekeeping gene.

[6] = tested on: mitochondria of HK-2 cells; test: Mitochondrial morphology observation (MitoTracker Green FM / Hoechst 33342); format: cell-based, human; conditions: 24 hours
Experimental: Excessively produced ROS induces mitochondrial fission, causing mitochondrial fragmentation and dysfunction (Zorov D, et al., Cells, 8:175, 2019). In order to observe whether or not DHMBA influences mitochondrial morphological changes under oxidative stress stimulation, double staining of mitochondria and nuclei was performed using MitoTracker (registered trademark) Green FM (Thermo Fisher Scientific), which reacts to mitochondrial membrane potential differences, and Hoechst 33342 (DOJINDO LABORATORIES), which binds to nuclear DNA.
The HK-2 cells were seeded into 35 mm dishes to be 5.0×10^4 cells/dish and cultured for 24 hours. Next, BSO and DHMBA were added in an amount of 2 mL/well to have a final concentration of BSO of 100 μM and a final concentration of DHMBA of 250 μM and 500 μM. After 24 hours, a mixed solution of 0.1 μM MitoTracker (registered trademark) Green FM and 5 μg/mL Hoechst 33342 was added in an amount of 2 mL/dish, and the cells were cultured at 37° C. for 20 minutes and washed with PBS. Afterwards, 1 mL of PBS was added, and fluorescence images were obtained at 100 times using a fluorescence microscope BZ-9000 (Keyence).

[7] = tested on: mitochondria of HK-2 cells; test: Mitochondrial respiration capacity (oxygen consumption rate, extracellular flux analyzer XFp); format: cell-based, human
Experimental: The action of DHMBA improving mitochondrial respiration capacity under oxidative stress was examined using an extracellular flux analyzer XFp (Agilent Technologies).
The HK-2 cells were seeded into the XFp Cell Culture Miniplate (Agilent Technologies) to be 1.5×10^4 cells/well and cultured for 24 hours. Next, BSO and DHMBA were added in an amount of 200 μL/well to have a final concentration of BSO of 100 μM and a final concentration of DHMBA of 250 μM and 500 μM. After 24 hours of culture, the culture medium was replaced with a running culture medium (XF DMEM Medium, pH 7.4, Agilent Technologies) containing 20 mM GlutaMAX (Gibco), 10 mM Pyruvate (Gibco), and glucose (10 mM), and the cells were cultured for one hour in an incubator at 37° C. without CO2 control. A 24-hour hydrated calibration plate was placed on an extracellular flux analyzer XFp and calibrated. After the calibration was completed, the calibration plate and the cell plate were exchanged, and the oxygen consumption rate (OCR) was measured. The basal respiration rate was measured first, and subsequently, oligomycin (final concentration: 2 μM) was added to inhibit ATP production. Next, FCCP (final concentration: 1 μM) was added, and the maximal respiration rate was measured. Finally, rotenon/antimycin A (final concentration: 0.25 μM) was added, and the respiration rate independent of mitochondria was measured. Each measurement was performed three times for all measurements.

[8] = tested on: PPARα/PGC1α/NRF1/TFAM pathway genes in HK-2 cells; test: qPCR expression of mitochondrial biosynthesis-related genes; format: cell-based, human; conditions: co-treatment with 100 μM BSO, DHMBA 250 μM and 500 μM
Experimental: It has been reported that mitochondrial biosynthesis is regulated through activation of the PPARα/PGC1α/NRF1/TFAM pathway (Uittenbogaard M and Chiaramello A, Current pharmaceutical design, 20:[…], 2014).
(§5) The expression levels of genes related to mitochondrial biosynthesis were measured in a similar manner to that described above. A comparison was performed with the control group as 1. The figure was expressed as a mean value±SD (n=3 for each group). Each expression level was corrected by the expression level of β-actin.

[9] = tested on: OPA1, DRP1 and FIS1 genes in HK-2 cells; test: qPCR expression of mitochondrial fusion- and fission-related genes; format: cell-based, human; conditions: co-treatment with 100 μM BSO, DHMBA 250 μM and 500 μM
Experimental: as §5, with “fusion (OPA1) and genes related to fission (DRP1 and FIS1)” for “biosynthesis”, “(n=4” for “(n=3”

Keap1-Nrf2 pathway = conditions: cited from earlier work
[10] = 100 μM BSO alone (oxidative stress stimulation)
[11] = co-treatment with 100 μM BSO, DHMBA 250 μM and 500 μM
[12] = 100 μM BSO and 500 μM DHMBA, 24 hours, OCR

CCCCS(=N)(=O)CCC(N)C(=O)O (centres unmarked) [BSO, buthionine sulfoximine, reference compound]
cytotoxicity ([1]; 100 μM BSO alone (0 μM DHMBA)): strong cytotoxicity | cell viability ([2]; 100 μM BSO alone (0 μM DHMBA), CCK-8): low cell viability | intracellular ROS ([3]; 100 μM BSO alone): increase in intracellular ROS | ROS accumulation in mitochondria ([4]; 100 μM BSO alone): ROS accumulation in mitochondria was also observed | expression level of BIK gene [5, 10]: increased | expression level of ENDOG gene [5, 10]: increased | mitochondrial fragmentation (morphology) [6, 10]: mitochondrial fragmentation was induced | damage to mitochondrial functions (OCR) ([7]; 100 μM BSO alone, 24-hour addition): not recognized

COc1c(O)cc(CO)cc1O [DHMBA, 3,5-dihydroxy-4-methoxybenzyl alcohol]
DHMBA concentration that inhibited cytotoxicity ([1]; co-treatment with 100 μM BSO, DHMBA 1 μM to 500 μM): ≥ 3.9 µM | DHMBA concentration that increased cell viability ([2]; co-treatment with 100 μM BSO, CCK-8, DHMBA 1 μM to 500 μM): ≥ 3.9 µM | production level of intracellular ROS [3, 11]: decreased to the same level as that of the control group | accumulation of intramitochondrial ROS [4, 11]: inhibited | expression level of BIK gene [5, 11]: decreased to the same levels as those of the control group | expression level of ENDOG gene [5, 11]: decreased to the same levels as those of the control group | expression level of PGC1α [8]: increased | expression level of TEAM [8]: increased | mitochondrial fragmentation (morphology) [6, 11]: fragmented mitochondria decreased | expression level of FIS1 [9]: reduced | mitochondrial ATP production [7, 12]: increased | mitochondrial basal respiration [7, 12]: increased | mitochondrial maximal respiration [7, 12]: increased | cytotoxicity compared with existing antioxidant substances (Keap1-Nrf2 pathway; earlier finding, background art): less cytotoxic than existing antioxidant substances | activation of radical scavenging ability and the Keap1-Nrf2 pathway, expression induction of antioxidant gene clusters (such as HO-1 and NQO1) (Keap1-Nrf2 pathway; literature (Fuda 2015; Joko 2017)): confirmed
